In ChEMBL document CHEMBL5291721, “A preclinical secondary pharmacology resource illuminates target-adverse drug reaction associations of marketed drugs” (Nat Commun, 2023):

Assays:
B2 bradykinin receptor = target: T1, B2 bradykinin receptor (Homo sapiens, UniProt P30411)
T1 sequence (P30411 whole entry): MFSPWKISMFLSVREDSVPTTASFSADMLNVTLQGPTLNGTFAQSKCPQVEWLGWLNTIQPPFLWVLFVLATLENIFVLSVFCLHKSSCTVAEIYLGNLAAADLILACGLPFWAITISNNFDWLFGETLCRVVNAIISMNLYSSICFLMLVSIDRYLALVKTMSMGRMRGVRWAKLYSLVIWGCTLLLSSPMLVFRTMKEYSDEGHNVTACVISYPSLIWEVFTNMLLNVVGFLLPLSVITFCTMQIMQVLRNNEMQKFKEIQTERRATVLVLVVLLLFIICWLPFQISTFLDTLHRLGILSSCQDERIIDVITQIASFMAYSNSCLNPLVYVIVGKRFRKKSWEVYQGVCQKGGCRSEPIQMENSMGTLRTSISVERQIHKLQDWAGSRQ

[1] = target: T2, Amine oxidase [flavin-containing] A (Homo sapiens, UniProt P21397); type: functional
T2 sequence (P21397 whole entry): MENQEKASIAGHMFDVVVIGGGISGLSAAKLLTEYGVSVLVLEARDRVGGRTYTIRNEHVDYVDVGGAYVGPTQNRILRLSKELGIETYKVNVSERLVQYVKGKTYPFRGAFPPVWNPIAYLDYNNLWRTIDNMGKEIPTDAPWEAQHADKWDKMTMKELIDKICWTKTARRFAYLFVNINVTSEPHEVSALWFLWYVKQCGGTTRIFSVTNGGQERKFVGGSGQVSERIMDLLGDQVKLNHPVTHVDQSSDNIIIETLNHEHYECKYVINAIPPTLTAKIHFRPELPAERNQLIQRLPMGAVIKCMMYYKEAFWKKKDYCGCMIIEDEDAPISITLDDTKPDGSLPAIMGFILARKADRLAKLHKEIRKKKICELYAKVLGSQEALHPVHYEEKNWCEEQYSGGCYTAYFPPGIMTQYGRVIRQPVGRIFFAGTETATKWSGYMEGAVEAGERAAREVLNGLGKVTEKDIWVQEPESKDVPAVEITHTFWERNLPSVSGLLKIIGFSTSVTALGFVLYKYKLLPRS

[2] = target: T3, Type-1 angiotensin II receptor (Homo sapiens, UniProt P30556)
T3 sequence (P30556 whole entry): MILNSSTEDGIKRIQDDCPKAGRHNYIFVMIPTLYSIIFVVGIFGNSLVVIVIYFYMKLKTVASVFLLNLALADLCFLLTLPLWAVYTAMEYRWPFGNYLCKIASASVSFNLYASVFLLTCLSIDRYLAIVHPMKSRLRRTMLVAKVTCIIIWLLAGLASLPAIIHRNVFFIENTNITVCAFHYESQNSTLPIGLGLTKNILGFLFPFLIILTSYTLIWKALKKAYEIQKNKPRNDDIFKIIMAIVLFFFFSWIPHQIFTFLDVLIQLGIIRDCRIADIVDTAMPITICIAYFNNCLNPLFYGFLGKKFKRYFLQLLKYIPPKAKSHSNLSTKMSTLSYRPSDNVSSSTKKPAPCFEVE

[3] = target: Beta-2 adrenergic receptor (Homo sapiens, UniProt P07550); type: functional, cell-based
[4] = target: 3',5'-cyclic-AMP phosphodiesterase 4D (Homo sapiens, UniProt Q08499); type: functional
[5] = target: T4, 5-hydroxytryptamine receptor 2A (Homo sapiens, UniProt P28223); type: functional, cell-based
Cannabinoid receptor 1 = Cannabinoid receptor 1 (Homo sapiens, UniProt P21554)
Glucocorticoid receptor = target: T5, Glucocorticoid receptor (Homo sapiens, UniProt P04150)
T5 sequence (P04150 whole entry): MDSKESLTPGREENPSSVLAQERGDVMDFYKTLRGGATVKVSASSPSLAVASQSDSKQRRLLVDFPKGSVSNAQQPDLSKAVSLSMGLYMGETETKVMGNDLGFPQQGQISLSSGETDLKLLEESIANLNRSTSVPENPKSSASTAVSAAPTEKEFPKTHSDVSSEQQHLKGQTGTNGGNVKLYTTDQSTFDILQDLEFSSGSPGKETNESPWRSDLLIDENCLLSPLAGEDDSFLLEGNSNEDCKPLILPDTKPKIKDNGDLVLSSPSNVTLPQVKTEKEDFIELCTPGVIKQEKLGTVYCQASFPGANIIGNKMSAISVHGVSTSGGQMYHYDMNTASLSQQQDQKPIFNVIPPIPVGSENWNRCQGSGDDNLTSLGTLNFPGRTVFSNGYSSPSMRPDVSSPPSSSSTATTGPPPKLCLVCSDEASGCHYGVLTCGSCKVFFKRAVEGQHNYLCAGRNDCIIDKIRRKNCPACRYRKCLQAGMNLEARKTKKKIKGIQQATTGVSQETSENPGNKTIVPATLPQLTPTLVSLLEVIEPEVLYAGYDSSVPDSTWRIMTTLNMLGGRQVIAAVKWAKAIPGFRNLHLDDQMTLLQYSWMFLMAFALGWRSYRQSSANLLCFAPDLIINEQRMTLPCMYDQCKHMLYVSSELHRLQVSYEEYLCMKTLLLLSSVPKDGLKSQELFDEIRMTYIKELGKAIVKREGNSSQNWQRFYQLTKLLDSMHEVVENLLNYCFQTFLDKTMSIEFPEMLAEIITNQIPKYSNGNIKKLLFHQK

[6] = target: T4, 5-hydroxytryptamine receptor 2A; type: functional, cell-based; remark: listed apart in the source
Mu-type opioid receptor [7] = target: T6, Mu-type opioid receptor (Homo sapiens, UniProt P35372); assay: biochemical; type: functional
[8] = target: Sodium-dependent dopamine transporter (Homo sapiens, UniProt Q01959)
Histamine H1 receptor = Histamine H1 receptor (Homo sapiens, UniProt P35367)
Mu-type opioid receptor [9] = target: T6, Mu-type opioid receptor
[10] = target: Muscarinic acetylcholine receptor M3 (Homo sapiens, UniProt P20309)
Further: assay procedure not described here.

Histamine H1 receptor, sequence (P35367 whole entry): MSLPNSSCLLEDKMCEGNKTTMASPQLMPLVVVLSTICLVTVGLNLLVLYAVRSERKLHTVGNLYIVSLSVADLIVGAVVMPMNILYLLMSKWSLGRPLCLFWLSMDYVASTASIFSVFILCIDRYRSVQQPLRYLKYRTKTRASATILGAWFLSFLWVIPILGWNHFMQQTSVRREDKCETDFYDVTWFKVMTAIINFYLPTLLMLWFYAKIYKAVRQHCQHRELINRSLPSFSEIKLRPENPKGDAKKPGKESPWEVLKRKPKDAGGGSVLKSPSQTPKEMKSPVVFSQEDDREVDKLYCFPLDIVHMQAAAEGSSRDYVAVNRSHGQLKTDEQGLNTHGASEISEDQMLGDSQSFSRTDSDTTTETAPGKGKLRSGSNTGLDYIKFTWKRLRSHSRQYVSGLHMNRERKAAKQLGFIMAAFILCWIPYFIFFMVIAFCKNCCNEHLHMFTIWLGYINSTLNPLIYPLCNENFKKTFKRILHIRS
T6 sequence (P35372 whole entry): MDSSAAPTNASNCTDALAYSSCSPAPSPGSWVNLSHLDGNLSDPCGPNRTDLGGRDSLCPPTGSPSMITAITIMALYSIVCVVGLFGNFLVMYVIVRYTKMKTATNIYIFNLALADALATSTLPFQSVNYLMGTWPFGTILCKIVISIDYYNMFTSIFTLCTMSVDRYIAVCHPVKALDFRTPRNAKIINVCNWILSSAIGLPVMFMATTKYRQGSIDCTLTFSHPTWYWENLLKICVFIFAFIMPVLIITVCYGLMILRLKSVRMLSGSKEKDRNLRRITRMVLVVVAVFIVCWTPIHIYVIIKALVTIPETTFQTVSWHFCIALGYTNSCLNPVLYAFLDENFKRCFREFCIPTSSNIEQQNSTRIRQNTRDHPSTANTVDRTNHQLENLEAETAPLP
3',5'-cyclic-AMP phosphodiesterase 4D, sequence (Q08499 whole entry): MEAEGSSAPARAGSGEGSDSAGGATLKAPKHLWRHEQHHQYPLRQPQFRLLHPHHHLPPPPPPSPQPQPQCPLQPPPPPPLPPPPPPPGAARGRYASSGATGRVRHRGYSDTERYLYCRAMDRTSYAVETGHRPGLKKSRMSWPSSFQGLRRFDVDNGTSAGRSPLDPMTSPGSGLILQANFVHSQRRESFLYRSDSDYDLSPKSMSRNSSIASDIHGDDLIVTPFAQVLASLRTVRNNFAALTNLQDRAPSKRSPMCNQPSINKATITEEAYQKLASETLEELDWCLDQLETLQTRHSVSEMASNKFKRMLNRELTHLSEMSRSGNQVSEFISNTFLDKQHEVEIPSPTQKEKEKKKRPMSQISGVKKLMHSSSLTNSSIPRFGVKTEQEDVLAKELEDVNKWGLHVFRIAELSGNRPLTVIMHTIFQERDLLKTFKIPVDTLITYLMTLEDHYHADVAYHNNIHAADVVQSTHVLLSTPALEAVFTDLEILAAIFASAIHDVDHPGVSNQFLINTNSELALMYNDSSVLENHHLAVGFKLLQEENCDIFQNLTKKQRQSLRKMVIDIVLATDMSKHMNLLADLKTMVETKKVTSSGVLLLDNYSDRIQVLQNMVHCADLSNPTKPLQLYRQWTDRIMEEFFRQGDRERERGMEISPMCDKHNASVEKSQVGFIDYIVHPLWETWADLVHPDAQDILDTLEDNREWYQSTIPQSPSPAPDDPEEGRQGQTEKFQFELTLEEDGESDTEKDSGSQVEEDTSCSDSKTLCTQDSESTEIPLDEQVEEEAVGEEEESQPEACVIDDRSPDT
T4 sequence (P28223 whole entry): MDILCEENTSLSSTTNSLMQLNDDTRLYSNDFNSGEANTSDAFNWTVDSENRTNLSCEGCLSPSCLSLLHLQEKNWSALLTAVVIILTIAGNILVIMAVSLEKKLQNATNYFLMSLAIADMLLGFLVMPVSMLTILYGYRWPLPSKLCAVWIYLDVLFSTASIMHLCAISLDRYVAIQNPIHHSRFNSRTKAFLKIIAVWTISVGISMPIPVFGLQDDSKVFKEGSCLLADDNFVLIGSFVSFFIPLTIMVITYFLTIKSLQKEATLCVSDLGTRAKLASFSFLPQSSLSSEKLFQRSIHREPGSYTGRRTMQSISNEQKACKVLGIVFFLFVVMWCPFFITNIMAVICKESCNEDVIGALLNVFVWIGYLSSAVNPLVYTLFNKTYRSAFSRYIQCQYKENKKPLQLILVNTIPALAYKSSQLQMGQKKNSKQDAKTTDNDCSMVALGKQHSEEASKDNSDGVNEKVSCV
Muscarinic acetylcholine receptor M3, sequence (P20309 whole entry): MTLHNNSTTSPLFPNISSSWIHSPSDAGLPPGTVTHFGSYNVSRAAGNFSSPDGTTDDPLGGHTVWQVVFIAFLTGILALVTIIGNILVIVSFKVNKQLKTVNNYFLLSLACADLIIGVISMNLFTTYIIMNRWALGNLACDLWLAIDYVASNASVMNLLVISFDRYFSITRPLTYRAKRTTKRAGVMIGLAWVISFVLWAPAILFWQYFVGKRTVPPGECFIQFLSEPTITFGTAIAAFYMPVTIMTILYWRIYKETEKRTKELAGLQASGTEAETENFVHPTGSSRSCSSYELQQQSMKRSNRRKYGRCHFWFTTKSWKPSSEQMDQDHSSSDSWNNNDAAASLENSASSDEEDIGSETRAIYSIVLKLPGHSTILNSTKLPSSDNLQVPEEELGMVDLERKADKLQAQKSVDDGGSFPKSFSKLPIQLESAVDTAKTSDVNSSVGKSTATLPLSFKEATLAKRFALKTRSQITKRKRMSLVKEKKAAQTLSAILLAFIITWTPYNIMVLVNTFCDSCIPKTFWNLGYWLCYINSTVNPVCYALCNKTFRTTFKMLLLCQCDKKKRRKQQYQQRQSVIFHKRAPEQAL
Cannabinoid receptor 1, sequence (P21554 whole entry): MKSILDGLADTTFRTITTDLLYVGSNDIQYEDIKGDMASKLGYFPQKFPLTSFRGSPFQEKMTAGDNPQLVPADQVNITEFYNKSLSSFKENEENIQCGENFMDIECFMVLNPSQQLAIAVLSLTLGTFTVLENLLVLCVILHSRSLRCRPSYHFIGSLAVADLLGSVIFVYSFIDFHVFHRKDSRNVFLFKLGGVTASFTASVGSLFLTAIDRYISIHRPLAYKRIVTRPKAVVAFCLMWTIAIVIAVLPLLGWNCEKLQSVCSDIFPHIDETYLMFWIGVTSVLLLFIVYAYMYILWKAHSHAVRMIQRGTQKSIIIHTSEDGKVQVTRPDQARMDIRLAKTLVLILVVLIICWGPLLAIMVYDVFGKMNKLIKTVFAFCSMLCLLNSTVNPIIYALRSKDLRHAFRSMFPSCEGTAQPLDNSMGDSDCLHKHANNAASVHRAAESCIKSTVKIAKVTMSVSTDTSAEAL
Sodium-dependent dopamine transporter, sequence (Q01959 whole entry): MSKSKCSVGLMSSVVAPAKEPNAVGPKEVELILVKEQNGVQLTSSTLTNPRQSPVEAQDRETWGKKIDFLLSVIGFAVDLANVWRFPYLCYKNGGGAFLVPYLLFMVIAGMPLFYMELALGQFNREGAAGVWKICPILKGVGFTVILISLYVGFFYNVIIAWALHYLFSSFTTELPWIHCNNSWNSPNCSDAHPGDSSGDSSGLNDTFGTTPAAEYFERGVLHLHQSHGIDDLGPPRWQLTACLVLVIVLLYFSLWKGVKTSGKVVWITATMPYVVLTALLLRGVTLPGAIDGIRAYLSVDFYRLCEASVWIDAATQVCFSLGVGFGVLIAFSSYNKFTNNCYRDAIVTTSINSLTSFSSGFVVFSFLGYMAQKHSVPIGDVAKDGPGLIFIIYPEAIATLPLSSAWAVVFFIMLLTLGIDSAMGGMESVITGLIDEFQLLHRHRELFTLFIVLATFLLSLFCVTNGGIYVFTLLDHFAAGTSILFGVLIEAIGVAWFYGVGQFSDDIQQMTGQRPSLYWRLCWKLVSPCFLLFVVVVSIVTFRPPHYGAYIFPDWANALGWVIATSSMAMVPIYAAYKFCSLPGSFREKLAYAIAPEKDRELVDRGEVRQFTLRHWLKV
Beta-2 adrenergic receptor, sequence (P07550 whole entry): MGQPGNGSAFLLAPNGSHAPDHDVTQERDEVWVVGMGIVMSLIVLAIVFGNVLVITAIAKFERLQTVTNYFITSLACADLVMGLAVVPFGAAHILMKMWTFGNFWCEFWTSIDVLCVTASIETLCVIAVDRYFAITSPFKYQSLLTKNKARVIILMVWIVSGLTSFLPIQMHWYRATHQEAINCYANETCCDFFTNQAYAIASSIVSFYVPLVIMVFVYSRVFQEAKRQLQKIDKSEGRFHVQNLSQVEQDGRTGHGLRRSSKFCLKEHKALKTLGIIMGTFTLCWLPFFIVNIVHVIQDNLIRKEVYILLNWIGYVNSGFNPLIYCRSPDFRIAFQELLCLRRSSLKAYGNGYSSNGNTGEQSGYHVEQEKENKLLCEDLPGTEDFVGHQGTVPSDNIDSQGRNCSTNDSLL

| AC50 (B2 bradykinin receptor) [µM] | AC50 [1] [µM] | AC50 [2] [µM] | AC50 [3] [µM] | AC50 [4] [µM] | AC50 [5] [µM] | AC50 (Cannabinoid receptor 1) [µM] | AC50 (Glucocorticoid receptor) [µM] | AC50 [6] [µM] | AC50 (Mu-type opioid receptor [7]) [µM] | AC50 [8] [µM] | AC50 (Histamine H1 receptor) [µM] | AC50 (Mu-type opioid receptor [9]) [µM] | AC50 [10] [µM] | SMILES |
| --- | --- | --- | --- | --- | --- | --- | --- | --- | --- | --- | --- | --- | --- | --- |
| > 30 | > 30 | > 30 | > 30 | > 30 | > 30 | > 10 | > 30 | 2.89 | > 30 | 11.6 | 1.18 | 19 | > 30 | CCN(CC)CCCN(c1ccccc1)C1Cc2ccccc2C1 [APRINDINE] |
| > 30 | > 30 | > 30 | > 30 | > 30 | > 30 | > 10 | > 30 | > 30 | > 30 | > 30 | > 30 | > 30 | > 30 | COc1ccc(C(Cl)=C(c2ccc(OC)cc2)c2ccc(OC)cc2)cc1 [CHLOROTRIANISENE] |
| > 30 | > 30 | > 30 | > 30 | > 30 | > 30 | – | > 30 | > 30 | > 30 | > 30 | > 30 | – | > 30 | CS(=O)(=O)NC(=O)CCC/C=C\C[C@H]1C(=O)C[C@@H](O)[C@@H]1/C=C/[C@@H](O)COc1ccccc1 [SULPROSTONE] |
| > 30 | > 30 | > 30 | > 30 | > 30 | > 30 | – | > 30 | > 30 | > 30 | > 30 | > 30 | – | > 30 | CCC(=O)O[C@H](CC(=O)O)C[N+](C)(C)C [LEVOCARNITINE PROPIONATE] |
| > 30 | > 30 | > 30 | > 30 | > 30 | > 30 | – | > 30 | > 30 | > 30 | > 30 | > 30 | – | > 30 | CCCCC[C@H](O)CC[C@@H]1[C@H]2Cc3cccc(OCC(=O)O)c3C[C@H]2C[C@H]1O [TREPROSTINIL] |
| > 10 | > 10 | > 10 | > 30 | > 30 | – | > 10 | > 10 | – | > 30 | > 10 | – | > 30 | – | CN1CCC(=C2c3ccccc3CC(=O)c3sccc32)CC1 [KETOTIFEN] |
